According to patent publication EP3409293B1, “COMPLEXES COMPRISING PHOSPHOLIPIDS, WATER-SOLUBLE DEXTRIN FIBERS AND ANTIOXIDANT ACTIVE PRINCIPLES OF NATURAL ORIGIN, THEIR PREPARATION AND USE IN ORAL FORMULATIONS” (UNIVERSITA' DEGLI STUDI DI CAGLIARI, priority 2017, dated 2018):

Tests used:
[1] = Ascorbic acid release from vesicles by dialysis at pH 2 and pH 7; type: physicochemical; details: 37 °C
Experimental: The velocity (concentration as a function of time) at which the ascorbic acid is released from the vesicles as a function of pH (2 and 7) was measured as well. The dispersions (1 mL) were transferred into dialysis tubes Spectra-Por (300 kDa Float-A-Lyzer G2) immersed in 50 mL of a solution of HCl 0.1 M (pH 2), or in 50 mL of PBS (Phosphate Buffered Saline at pH 7), and maintained at 37 °C under constant stirring for 2 hours at pH 2 and for 6 hours at pH 7. A percentage of the sample was removed at predefined time intervals, and the ascorbic acid concentration was measured with a UV spectrophotometer. […] As aforementioned, release studies were carried out in order to evaluate the ability of the lamellar vesicles to retain and protect the ascorbic acid during the passage through the stomach (pH 2) and/or to retain/protect the same at the neutral pH of the intestine. […] The nutriosomes of the present invention, with or without the additional polymer HPMC, release a quantity of less than 20% after 20 minutes; subsequently, the HPMC-nutriosomes release the lowest percentage, ~40%, after 120 minutes.

[2] = tested on: Caco2; test: Biocompatibility on Caco2 cells, 48 hours, MTT (curcumin, EU-nutriosomes); type: cell-based, human; details: Caco2, 48 hours, higher dilutions; % of untreated cells
Experimental: The biocompatibility of curcumin in dispersion or carried in liposomes or EU-nutriosomes was measured by treating intestinal cells (Caco2) with the vesicular formulations at different dilutions for 48 hours. At the end of this incubation period, cell viability was measured by MTT test, and was expressed as a percentage with respect to the untreated cells (negative control). The results are shown in the annexed Figure 13. At the lowest dilution (10 µg/mL of curcumin), viability is ~75%, regardless of the tested sample; at higher dilutions, the viability of the cells treated with curcumin in dispersion remains around 80%, while that of the cells treated with the nutriosomes is greater (~105%) and equal to that of the reference liposomes, which are generally known to be a non-toxic and biocompatible carrier. Probably all vesicular systems are capable of modulating the curcumin uptake within the cells, thereby reducing any toxic effect thereof. By using a non-toxic dilution (1 µg/mL of curcumin), we studied the ability of the formulations to promote the antioxidizing efficacy of the polyphenol. As shown in the previous example, the cells were stressed with hydrogen peroxide and simultaneously treated with curcumin in dispersion or incorporated in the vesicles (see annexed Figure 14). […]

[3] = tested on: Caco2 cells; test: Protection of Caco2 cells against hydrogen peroxide oxidative damage (MTT), curcumin formulations; type: cell-based, human; details: Caco2 cells treated with hydrogen peroxide and simultaneously with curcumin formulation, 4 hours; % of untreated cells
Experimental: A study was carried out to evaluate the in vitro ability of the nutriosomes to improve the protective efficacy of curcumin against the oxidative damage induced in Caco2 cells by hydrogen peroxide (Figure 8). The cells were sown in 96-well plates and incubated at 37 °C in an atmosphere with 5% CO2 for the period necessary for achieving confluence. As a negative control, cells maintained in optimal growth conditions and not treated either with hydrogen peroxide or with curcumin were used; as a positive control, cells maintained in optimal growth conditions and treated with hydrogen peroxide, but not treated with curcumin, were used. The other cells were treated with hydrogen peroxide and, simultaneously, with curcumin in aqueous dispersion or carried in liposomes, nutriosomes and HPMC-nutriosomes. The cells were incubated for 4 hours, washed with PBS, and then cell survival was measured by means of a colorimetric test with tetrazolium salt, 3-(4,5-dimethylthiazol-2-yl)-2,5-diphenyltetrazolium bromide (MTT) (see annexed Figure 8). Cell viability was calculated as a percentage of the viability of the untreated cells (negative control).

[4] = Plasmatic concentration of curcumin in rats after gavage; type: in vivo, WISTAR male rats; details: 2 mL containing 20 mg/mL of curcumin, during the 8 hours of study
Experimental: Curcumin in dispersion or carried in liposomes or nutriosomes was administered to rats in vivo, and both the local accumulation and the plasmatic concentration were measured. The experiments were conducted by using WISTAR male rats (8-12 weeks of age and 230-250 g). The animals were treated in accordance with the European Union regulations concerning the use of laboratory animals. The protocols have been approved by the Istitutional Animal Care and Use Committee of the University of Valencia (Spain). Throughout the length of the study, the animals were kept in a thermally conditioned chamber, with a light/dark cycle of 12 hours and free access to water and food. […] In order to measure the quantity of curcumin accumulated in the intestine, the rats were sacrificed 4 hours after administration, and the gastrointestinal apparatus was removed and divided into the different segments. […]
In order to quantify a plasmatic concentration of curcumin when administering the aqueous dispersion, it was necessary to double the concentration; therefore, 2 mL of dispersion were administered, containing 20 mg/mL of curcumin instead of 10 mg/mL as in liposomes and nutriosomes (Figure 10). Notwithstanding this, the measured plasmatic concentration is always very low, i.e. ∼10 ng/mL during the 8 hours of study. […]

ascorbic acid released ([1]; pH 2 (HCl 0.1 M), after 20 minutes)	ascorbic acid released ([1]; pH 7 (PBS), after 1 hour)	plasmatic concentration of curcumin [4]	Structure (SMILES)	cell viability [2]	cell viability [3]
approximately 80%	about 80%	–	O=C1O[C@H]([C@@H](O)CO)C(O)=C1O [aqueous solution, ascorbic acid]	–	–
–	–	~10 ng/mL	COc1cc(C=CC(=O)CC(=O)C=Cc2ccc(O)c(OC)c2)ccc1O [curcumin in aqueous dispersion, 1,7-Bis(4-hydroxy-3-methoxyphenyl)hepta-1,6-diene-3,5-dione]	around 80%	~ 69%
